Source: patent US20030083374A1, “NAALADase inhibitors useful as pharmaceutical compounds and compositions” (priority 1998, published 2003)

Legend:
alcohol-preferring rats = settings: rat, in vivo; cited from earlier work
MPTP lesioned mice = settings: cited from earlier work
LNCaP cells = settings: as the concentration increased; cited from earlier work
[1] = tested on: cryolesion of the sciatic nerve; settings: sciatic nerves in mice; cited from earlier work
[2] = tested on: stroke-induced extracellular glutamate increases; settings: rats; cited from earlier work
[3] = tested on: acetic acid (0.6%) induced writhing; test: acetic acid model of pain (writhing); format: in vivo, mice; settings: pretreated
From the text: (§1) One source of neuronal glutamate is thought to derive from the abundant neuropeptide NAAG which is hydrolyzed by NAALADase to liberate free glutamate. The inventors hypothesized that inhibition of NAALADase could limit pain by preventing this source of glutamate. To test this hypothesis, the inventors examined the possible antinocipetive effects of several NAALADase inhibitors in the formalin-, acetic acid- and chronic constrictive injury (CCI; “Bennett model”) models of pain. […] On day 7, 5% formalin was injected into the dorsum of the rat's hindpaw.

[4] = tested on: hyperalgesia following sciatic nerve constriction; test: chronic constrictive injury (CCI) model of pain; format: in vivo, rats
From the text: as §1
Sciatic nerve ligation, consisting of 4 ligatures being tied loosely around the sciatic nerve at 1 mm intervals proximal to the nerve trifurcation, was performed on rats. […] Animals were habituated to the Hargreaves apparatus and the infrared heat source directed onto the […] surface of the hindpaw and the time taken for the animal to withdraw its paw noted. The difference score (between the latency of the response for the paw on the operated side versus the control side) was determined. […] Normal (unoperated) rats had approximately equal latencies for both paws. This effect was significant starting at 11 days of drug treatment and persisted through to the end of the study (for 21 days of daily dosing).

[5] = tested on: Dorsal root ganglia-Schwann cell co-cultures; test: in vitro myelination in dorsal root ganglia-Schwann cell co-cultures; format: cell-based
From the text: The inventors hypothesized that NAALADase may play a role in signaling myelin formation and inhibition of NAALADase may facilitate myelination. To test this hypothesis, the inventors examined the effects of several NAALADase inhibitors in a well established in vitro model system of myelination. Dorsal root ganglia-Schwann cell co-cultures were established as previously described (Einheber et al., J. Cell. Biol., Vol. 123, p. 1223). Following 7 days in co-culture, myelination was initiated following the addition of serum and ascorbic acid with various doses of NAALADase inhibitors (1 nM to 10 μM) or progesterone (20 nM; positive control). The extent of myelination was examined between days 14-21 using immunocytochemical staining for myelin basic protein (MBP), a known myelin marker.

LNCaP tumors [6] = test: in vivo cancer assay, LNCaP model, intratumoral drug delivery; design: species or system Ncr nude male mice
Method: Ncr nude male mice, age 5 to 6 weeks, were injected in the right flank with 10^7 LNCaP cells in Matrigel™ (0.1 ml total injection volume). When the tumors reached a predetermined size (50 to 60 mm^3) mice.were randomly placed into treatment groups of 6 to 8 mice each. […] Controls received 50 μl of 50 mM HEPES intratumorally daily. Tumors were measured twice a week.
(§2) Response to treatment was monitored in two ways. First, mean tumor volume for each group was presented as tumor:control ratio (% T/C) and these values were compared at one point in time. Second, tumor volume versus time was monitored.

[7] = tested on: cocaine-induced sensitization; test: in vivo behavioral sensitization to cocaine; design: species or system Male Sprague-Dawley rats
Method: NAALADase hydrolyzes the abundant neuropeptide NAAG to liberate glutamate (GLU). The inventors hypothesized that inhibition of NAALADase could attenuate sensitization by preventing this source of GLU. […] Male Sprague-Dawley rats received home cage injections of cocaine (20 mg/kg/day×5 days; i.p.) or sale (1.0 ml/kg). […] Cocaine (20 mg/kg)-induced locomotor activity was assessed 3 days later. […]

Dunning G tumors = test: in vivo cancer assay, Dunning G model, subcutaneous drug delivery; design: species or system Male Copenhagen syngenic rats
Method: Male Copenhagen syngenic rats, age 8 to 10 weeks, were injected in both flanks with 10^7 Dunning G cells. […] Controls received 50 mM HEPES s.c. daily. Tumors were measured twice a week.
as §2

[8] = tested on: angiogenesis in Matrigel plugs; test: in vivo assay of daily dosages on angiogenesis (Matrigel plug, bFGF); design: species or system C57B1 female mice; settings: 3 mg/kg and 30 mg/kg daily s.c., seven days
Method: The injected Matrigel™ rapidly formed a gel. On the same a day as the Matrigel™ injection, daily subcutaneous injections of Compound 3 around the Matrigel™ plug were initiated. Seven days post Matrigel™ injection, Matrigel™ plugs were excised and histology was performed.
The concentrations of the daily dosages as well as the coinciding initial Matrigel™ plug compositions are provided below in TABLE VI.

[9] = tested on: dynorphin-induced spinal cord injury; settings: co-administered with dynorphin A; by 24-hour post-injection; cited from earlier work
[10] = tested on: spinal cord organotypic cultures; settings: cited from earlier work
LNCaP tumors [11] = test: in vivo cancer assay, LNCaP model, subcutaneous drug delivery; design: species or system Ncr nude male mice
Method: Ncr nude male mice, age 5 to 6 weeks, were injected in the right flank with 5×10^6 LNCaP cells in Matrigel™ (0.1 ml total injection volume). […] Controls received 50 mM HEPES s.c. daily. Once tumors were palpable they were measured twice a week.
as §2

[12] = tested on: nicotine self-administration in rats; settings: rat, in vivo; cited from earlier work
[13] = tested on: formalin-induced flinching behavior; test: formalin model of pain; format: in vivo, rats; settings: 50 mg/kg i.p. daily for 7 days
From the text: as §1

[14] = tested on: angiogenesis in the Matrigel/bFGF gels; test: in vivo assay of a continuous dosage on angiogenesis (minipump, Matrigel/bFGF); design: species or system C57B1 female mice
Method: Minipumps filled with vehicle (50 mM Hepes) were also implanted at this time. Twenty-four hours later, mice were each injected subcutaneously with 0.5 mL Matrigel™ and the 150 ng/mL of the angiogenic factor, basic FGF (bFGF). Thirteen days post Matrigel™/bFGF injection, the gels were recovered, fixed in formalin and sections were stained with Trichrome-Masson stain.

[15] = 50 mg/kg i.p. daily starting 10 days after surgery, day 18

## O=C(O)CCC(CP(=O)(O)O)C(=O)O (centres unmarked) [Compound 3, 2-(phosphonomethyl)-pentanedioic acid]
alcohol-preferring rats
  body weights or 24 hour water intakes: without affecting
  ethanol consumption: significantly reduced
MPTP lesioned mice
  TH-stained dopaminergic neurons: significant recovery
LNCaP cells
  LNCaP cell proliferation: decreased significantly
[1]
  myelin thickness: increase
  myelinated axon number: increase
[2]
  concurrent glutamate changes in the parietal cortex: completely prevented
  stroke-induced extracellular glutamate increases in the striatum: significantly attenuated
[3]
  acetic acid (0.6%) induced writhing vs. vehicle control: significantly attenuated
[4]; [15]
  difference scores (thermal pain response): −0.2±1.9
  pain attenuation vs. operated vehicle group: 98%
[4]; 50 mg/kg i.p. daily starting 10 days post surgery, significant starting at 11 days, through 21 days of dosing
  difference scores between the two paws vs. vehicle-treated controls: dramatically normalized
[5]; 1 nM, two week treatment
  immunostaining of MBP: significant increase
[5]; high dose, 1 μM
  extent of myelination vs. maximal doses of ascorbic acid and progesterone: greater extent of myelination
LNCaP tumors [6]; after 42 days of treatment, intratumoral 0.025 μg/day
  Tumor volume: 465.7±176 mm^3
LNCaP tumors [6]; intratumoral 0.025 μg/day
  Optimal % T/C: 42%
  Regressions: 1/7
LNCaP tumors [6]; intratumoral 0.25 μg/day
  Optimal % T/C: 51%
  Regressions: 1/7
LNCaP tumors [6]; intratumoral 2.5 μg/day
  Optimal % T/C: 45%
  Regressions: 0/7
LNCaP tumors [6]; intratumoral 25.0 μg/day
  Optimal % T/C: 76%
  Regressions: 0/7
LNCaP tumors [6]; intratumoral 0.025, 0.25 and 2.5 μg/day
  tumor growth: slowed tumor growth substantially
[7]; 10 and 50 mg/kg, 15 minutes prior to cocaine injections x 5 days, assessed 3 days later
  enhancement of cocaine (20 mg/kg)-induced locomotor activity (sensitization): significantly reduced
[7]; Compound 3 on its own
  basal locomotor activity or the response to saline: did not alter
Dunning G tumors; 10 mg/kg s.c. daily
  tumor size, % of controls: 38%
Dunning G tumors; 30 mg/kg s.c. daily
  tumor size, % of controls: 22%
Dunning G tumors; 1 and 3 mg/kg s.c. daily
  effect on tumor growth: no effect on tumor growth
[8]
  blood vessels or angiogenesis in the Matrigel plugs: decrease in blood vessels or angiogenesis
[9]
  motor scores: significant improvement
[10]
  protection against THA-induced toxicity: dose-dependent protection
LNCaP tumors [11]; 10 mg/kg s.c. daily, day 86
  tumor growth, % of controls: 24%
LNCaP tumors [11]; 1, 3 and 30 mg/kg s.c. daily
  effect on tumor growth: no effect on tumor growth
[12]
  cumulative food intakes: reduced
  nicotine self-administration: reduced
[13]
  effect compared with acute pretreatment with morphine (5 mg/kg): more robust
[13]; 5% formalin on day 7
  flinching behavior, early phase: 2.5±3
  flinching behavior, late phase: 0.5±0.58
[14]; 1 μg/day by minipump
  angiogenic response: strong angiogenic response
[14]; 10 μg/day and 100 μg/day by minipump
  angiogenesis in the Matrigel/bFGF gels: significantly decreased angiogenesis
